The assay deals with recombinant human SAE enzyme (Homo sapiens (Human), UniProt Q9UBT2). The assay can be described thus: SAE HTRF enzyme assay. The assay is classed as biochemical. The conditions noted are these: for inhibition at 0.111 µM: read-out: Percent Inhibition. The protocol: Example 215: SAE HTRF enzyme assay
The SAE enzymatic reaction totals 50 μl and contains 50 mM HEPES Hemisodium (pH 7.5), 0.05% BSA, 5 mM MgCl2, 0.5 μM ATP, 250 μM GSH, 0.01 μM Ubc9-GST, 0.125 μM Sumo-Flag and 0.11 nM recombinant human SAE enzyme. The enzymatic reaction mixture, with and without inhibitor, Is incubated at 24° C. for 105 min in a 384-well plate before termination with […] of Stop/Detection buffer (0.1M HEPES Hemisodium pH 7.5, 0.05% Tween20, 20 mM EDTA, 410 mM KF, 0.53 nM Europium-Cryptate labeled monoclonal anti-Flag M2 Antibody (CisBio International) and 8.125 μg/ml PHYCOLINK goat anti-GST allophycocyanin (XL-APC) antibody (Prozyme)). After incubation for 2 hours at 24° C., quantification of FRET is performed on the Pherostar™ (BMG Labtech). Percentage inhibition values at a single concentration or enzyme inhibition (IC50) values are determined from those curves. One skilled in the art will appreciate that the values generated either as percentage inhibition at a single concentration or IC50 values are subject to experimental variation.
For orientation: In TR-FRET formats the signal depends on donor and acceptor labels being close together.

The mark [1] stands for this setting: SAE inhibition at compound concentration 0.111 μM.
Where [2] appears, read: SAE inhibition, class symbols, legend in nM.

Where only a bound is given, the exact number is not on record here.

A word on the IC50: it is the concentration needed to halve the response being measured. By inhibition is commonly meant the relative decrease from the control value, in per cent.

Chain of recombinant human SAE enzyme (Q9UBT2 whole entry): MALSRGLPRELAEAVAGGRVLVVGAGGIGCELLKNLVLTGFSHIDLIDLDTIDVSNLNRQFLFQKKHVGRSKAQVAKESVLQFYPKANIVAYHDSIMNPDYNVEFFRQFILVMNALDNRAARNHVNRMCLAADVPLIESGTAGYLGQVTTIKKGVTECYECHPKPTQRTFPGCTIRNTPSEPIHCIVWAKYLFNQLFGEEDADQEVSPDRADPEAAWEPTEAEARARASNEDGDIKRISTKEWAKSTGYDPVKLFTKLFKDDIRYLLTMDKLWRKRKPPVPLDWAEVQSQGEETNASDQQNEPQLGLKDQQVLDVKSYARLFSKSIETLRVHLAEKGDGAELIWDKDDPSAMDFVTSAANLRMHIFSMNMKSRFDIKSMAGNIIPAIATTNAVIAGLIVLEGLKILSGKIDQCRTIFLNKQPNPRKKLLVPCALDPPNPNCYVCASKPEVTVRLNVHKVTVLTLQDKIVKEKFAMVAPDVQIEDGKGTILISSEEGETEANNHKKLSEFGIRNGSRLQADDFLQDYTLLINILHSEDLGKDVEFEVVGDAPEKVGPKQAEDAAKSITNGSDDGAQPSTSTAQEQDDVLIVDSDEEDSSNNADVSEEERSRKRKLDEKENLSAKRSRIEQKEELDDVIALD
Chain of recombinant human SAE enzyme (Q9UBE0 whole entry partner): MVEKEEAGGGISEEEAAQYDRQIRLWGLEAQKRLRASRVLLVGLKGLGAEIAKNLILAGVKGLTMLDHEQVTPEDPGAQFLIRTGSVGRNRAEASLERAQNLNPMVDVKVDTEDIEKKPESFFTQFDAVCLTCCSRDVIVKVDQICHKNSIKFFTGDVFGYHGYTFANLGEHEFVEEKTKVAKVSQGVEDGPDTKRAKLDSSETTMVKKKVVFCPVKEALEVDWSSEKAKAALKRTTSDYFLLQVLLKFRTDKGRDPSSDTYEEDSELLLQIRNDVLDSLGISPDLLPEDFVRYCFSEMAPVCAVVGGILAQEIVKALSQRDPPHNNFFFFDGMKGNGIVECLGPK

For `Cc1sc(C(=O)c2cncnc2N[C@@H]2C[C@H](COS(N)(=O)=O)[C@@H](O)C2)cc1[C@H]1NCCc2ccc(Br)cc21` (single isomer, unassigned) [I-248a, [(1R,2S,4R)-4-{[5-({4-[(1S)-7-bromo-1,2,3,4-tetrahydroisoquinolin-1-yl]-5-methyl-2-thienyl}carbonyl)pyrimidin-4-yl]amino}-2-hydroxycyclopentyl]methyl sulfamate or [(1R,2S,4R)-4-{([5-({4-[(1R)-7-bromo-1,2,3,4-tetrahydroisoquinolin-1-yl]-5-methyl-2-thienyl}carbonyl)pyrimidin-4-yl]amino}-2-hydroxycyclopentyl]methyl sulfamate], the “Percent Inhibition” value (Concentration 0.111 μM) turned out to be 99. The IC50 (class symbols A/B/C) was less than 10 nM.
The like results for `NS(=O)(=O)OC[C@H]1C[C@@H](Nc2ncncc2C(=O)c2cc(C(O)c3cccc(Cl)n3)cs2)C[C@@H]1O` (single isomer, unassigned) [I-29b, [(1R,2S,4R)-4-{[5-({4-[(S)-(6-chloropyridin-2-yl)(hydroxy)methyl]-2-thienyl}carbonyl)pyrimidin-4-yl]amino}-2-hydroxycyclopentyl]methyl sulfamate or [(1R,2S,4R)-4-{[5-({4-[(R)-(6-chloropyridin-2-yl)(hydroxy)methyl]-2-thienyl}carbonyl)pyrimidin-4-yl]amino}-2-hydroxycyclopentyl]methyl sulfamate] were, in that order, 99 and less than 10 nM.
As to `NS(=O)(=O)OC[C@H]1C[C@@H](Nc2ncncc2C(=O)c2cc(Cc3cccc(Br)c3)c(Cl)s2)C[C@@H]1O` [I-112, {(1R,2S,4R)-4-[(5-{[4-(3-bromobenzyl)-5-chloro-2-thienyl]carbonyl}pyrimidin-4-yl)amino]-2-hydroxycyclopentyl}methyl sulfamate], under “Concentration 0.111 μM”, the inhibition at 0.111 µM amounted to 97%.
Regarding `NS(=O)(=O)OC[C@H]1C[C@@H](Nc2ncncc2C(=O)c2cc([C@@H]3OCC4(CC4)c4ccccc43)cs2)C[C@@H]1O` (single isomer, unassigned) [I-281b, [(1R,2S,4R)-2-hydroxy-4-{[5-({4-[(1′R)-1′H-spiro[cyclopropane-1,4′-isochromen]-1′-yl]-2-thienyl}carbonyl)pyrimidin-4-yl]amino}cyclopentyl]methyl sulfamate or [(1R,2S,4R)-2-hydroxy-4-{[5-({4-[(1′S)-1′H-spiro[cyclopropane-1,4′-isochromen]-1′-yl]-2-thienyl}carbonyl)pyrimidin-4-yl]amino}cyclopentyl]methyl sulfamate], under setting [1], the “Percent Inhibition” value is 99%. In addition, under setting [2], the IC50 is less than 10 nM.
`NS(=O)(=O)OC[C@H]1C[C@@H](Nc2ncncc2C(=O)c2cc(S(=O)(=O)c3cccc(Cl)c3)c(Cl)s2)C[C@@H]1O` [I-203, [(1R,2S,4R)-4-{[5-({5-chloro-4-[(3-chlorophenyl)sulfonyl]-2-thienyl}carbonyl)pyrimidin-4-yl]amino}-2-hydroxycyclopentyl]methyl sulfamate]: the inhibition at 0.111 µM (Concentration 0.111 μM) amounted to 58%. The IC50 (class symbols A/B/C) fell in the range of 10 to 100 nM.
For `NS(=O)(=O)OCC1CC(Nc2ncncc2C(=O)c2cc(C(O)(CCO)c3cccc(Cl)c3)c(Cl)s2)CC1O` (mixture of isomers) [I-49, [(1R,2S,4R)-4-{[5-({5-Chloro-4-[(1S)-1-(3-chlorophenyl)-1,3-dihydroxypropyl]-2-thienyl}carbonyl)pyrimidin-4-yl]amino}-2-hydroxycyclopentyl]methyl sulfamate and [(1R,2S,4R)-4 {[5-({5-Chloro-4[(1R)-1-(3-chlorophenyl)-1,3-dihydroxypropyl]-2-thienyl}carbonyl)pyrimidin-4-yl]amino}-2-hydroxycyclopentyl]methyl sulfamate], the “Percent Inhibition” value (Concentration 0.111 μM) was determined as 98. Besides, the IC50 (class symbols A/B/C) is less than 10 nM.
For `NS(=O)(=O)OC[C@H]1C[C@@H](Nc2ncncc2C(=O)c2cc([C@H](O)c3cccc(Cl)c3)co2)C[C@@H]1O` (single isomer, unassigned) [I-42a, {(1R,2S,4R)-4-[(5-{4-[(R)-(3-chlorophenyl)(hydroxy)methyl]-2-furoyl}pyrimidin-4-yl)amino]-2-hydroxycyclopentyl}methyl sulfamate or {(1R,2S,4R)-4-[(5-{4-[(S)-(3-chlorophenyl)(hydroxy)methyl]-2-furoyl}pyrimidin-4-yl)amino]-2-hydroxycyclopentyl}methyl sulfamate], in that order: 97 and less than 10 nM.
In the case of `CC(O)(c1cccc(Cl)c1)c1coc(C(=O)c2cncnc2NC2CC(O)C(COS(N)(=O)=O)C2)c1` (mixture of isomers) [I-30, {(1R,2S,4R)-4-[(5-{4-[(1S)-1-(3-chlorophenyl)-1-hydroxyethyl]-2-furoyl}pyrimidin-4-yl)amino]-2-hydroxycyclopentyl}methyl sulfamate and {(1R,2S,4R)-4-[(5-{4-[(1R)-1-(3-chlorophenyl)-1-hydroxyethyl]-2-furoyl}pyrimidin-4-yl)amino]-2-hydroxycyclopentyl}methyl sulfamate], the “Percent Inhibition” value (Concentration 0.111 μM) is on record as 98. Moreover, the IC50 (class symbols A/B/C) was less than 10 nM.
Turning to `NS(=O)(=O)OC[C@H]1C[C@@H](Nc2ncncc2C(=O)c2cc([C@H]3NCCc4ccccc43)c(Cl)s2)C[C@@H]1O` (single isomer, unassigned) [I-279b, [(1R,2S,4R)-4-{[5-({5-chloro-4-[(1S)-1,2,3,4-tetrahydroisoquinolin-1-yl]-2-thienyl}carbonyl)pyrimidin-4-yl]amino}-2-hydroxycyclopentyl]methyl sulfamate or [(1R,2S,4R)-4-{[5-({5-chloro-4-[(1R)-1,2,3,4-tetrahydroisoquinolin-1-yl]-2-thienyl}carbonyl)pyrimidin-4-yl]amino}-2-hydroxycyclopentyl]methyl sulfamate], for the setting “Concentration 0.111 μM”, the “Percent Inhibition” value is listed as 84. Besides, the IC50 (class symbols A/B/C) is 10 to 100 nM.
Take `Cc1sc(C(=O)c2cncnc2N[C@@H]2C[C@H](COS(N)(=O)=O)[C@@H](O)C2)cc1Cn1ccc(C#N)c1` [I-194, [(1R,2S,4R)-4-{[5-({4-[(3-cyano-1H-pyrrol-1-yl)methyl]-5-methyl-2-thienyl}carbonyl)pyrimidin-4-yl]amino}-2-hydroxycyclopentyl]methyl sulfamate]: for the setting “Concentration 0.111 μM”, the inhibition at 0.111 µM stood at 66%. Moreover, the IC50 (class symbols A/B/C) was 10 to 100 nM.
For the molecule `C#Cc1ccc2c(c1)[C@H](c1cc(C(=O)c3cncnc3N[C@@H]3C[C@H](COS(N)(=O)=O)[C@@H](O)C3)sc1C)OCC2` (single isomer, unassigned) [I-252b, [(1R,2S,4R)-4-{[5-({4-[(1R)-7-ethynyl-3,4-dihydro-1H-isochromen-1-yl]-5-methyl-2-thienyl}carbonyl)pyrimidin-4-yl]amino}-2-hydroxycyclopentyl]methyl sulfamate or [(1R,2S,4R)-4-{([5-({4-[(1S)-7-ethynyl-3,4-dihydro-1H-isochromen-1-yl]-5-methyl-2-thienyl}carbonyl)pyrimidin-4-yl]amino}-2-hydroxycyclopentyl]methyl sulfamate], the “Percent Inhibition” value (Concentration 0.111 μM) is recorded as 98. Besides, where the note is “class symbols A/B/C”, the IC50 was less than 10 nM.
For `NS(=O)(=O)OC[C@H]1C[C@@H](Nc2ncncc2C(=O)c2cc([C@@]3(c4ccccc4)CCCO3)cs2)C[C@@H]1O` (mixture of isomers) [I-32, [(1R,2S,4R)-2-hydroxy-4-{[5-({4-[(2S)-2-phenyltetrahydrofuran-2-yl]-2-thienyl}carbonyl)pyrimidin-4-yl]amino}cyclopentyl]methyl sulfamate and [(1R,2S,4R)-2-hydroxy-4-{[5-({4-[(2R)-2-phenyltetrahydrofuran-2-yl]-2-thienyl}carbonyl)pyrimidin-4-yl]amino}cyclopentyl]methyl sulfamate], in that order: 98 and less than 10 nM.
Take `NS(=O)(=O)OC[C@H]1C[C@@H](Nc2ncncc2C(=O)c2cc([C@@H]3OCCCc4ccc(Cl)cc43)cs2)C[C@@H]1O` (mixture of isomers) [I-314, [(1R,2S,4R)-4-{[5-({4-[(1R)-8-chloro-1,3,4,5-tetrahydro-2-benzoxepin-1-yl]-2-thienyl}carbonyl)pyrimidin-4-yl]amino}-2-hydroxycyclopentyl]methyl sulfamate and [(1R,2S,4R)-4-{[5-({4-[(1S)-8-chloro-1,3,4,5-tetrahydro-2-benzoxepin-1-yl]-2-thienyl}carbonyl)pyrimidin-4-yl]amino}-2-hydroxycyclopentyl]methyl sulfamate]: under setting [1], the “Percent Inhibition” value is reported as 95%. The IC50 under setting [2] was less than 10 nM.
Turning to `CC(N)(c1cccc(Cl)c1)c1csc(C(=O)c2cncnc2N[C@@H]2C[C@H](COS(N)(=O)=O)[C@@H](O)[C@H]2O)c1` (single isomer, unassigned) [I-8b, [(1R,2R,3S,4R)-4-{[5-({4-[(1S)-1-amino-1-(3-chlorophenyl)ethyl]-2-thienyl}carbonyl)pyrimidin-4-yl]amino}-2,3-dihydroxycyclopentyl]methyl sulfamate or [(1R,2R,3S,4R)-4-{[5-({4-[(1R)-1-amino-1-(3-chlorophenyl)ethyl]-2-thienyl}carbonyl)pyrimidin-4-yl]amino}-2,3-dihydroxycyclopentyl]methyl sulfamate], the “Percent Inhibition” value (Concentration 0.111 μM) is on record as 99. In addition, where the note is “class symbols A/B/C”, the IC50 is less than 10 nM.

The values are drawn from patent US10780090B2, “Heteroaryl compounds useful as inhibitors of SUMO activating enzyme” (Millennium Pharmaceuticals, Inc., priority 2014, dated 2020).
